The results in this text go back to PubChem BioAssay (NCI).

Molecules are shown by their SMILES.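 Following 48 hours of exposure in 96-well plates, responses at five concentrations were used to interpolate endpoints linearly. GI50 marks 50% less growth. TGI marks complete inhibition of growth.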 Where only a bound is given, the exact number is not on record here.

Some test systems named below: NCI-H460 lung; SK-OV-3 ovarian; TK-10 renal; A549 NSCLC; HOP-62 NSCLC; A498 renal.
Holding throughout (assay): NCI-60 cell line screen, 48 h

In the case of `C=C(C=O)[C@@H]1CC[C@]2(COC(C)=O)CC[C@]3(C)C(CC[C@@H]4[C@@]5(C)CC[C@H](OC(C)=O)C(C)(C)[C@@H]5CC[C@]43C)[C@@H]12` (some centres not stated), the GI50 with NCI-H460 lung, in the assay with SK-OV-3 ovarian, in the assay on TK-10 renal, in the assay on A549 NSCLC, in the assay with HOP-62 NSCLC and in the assay on A498 renal was greater than 100 µM in each case. In addition, the TGI with NCI-H460 lung, in the assay with SK-OV-3 ovarian, with TK-10 renal, with A549 NSCLC, in the assay with HOP-62 NSCLC and with A498 renal was greater than 100 µM each time.
